Experimental data from PubChem BioAssay (NCI).
“And” between values parts separate entries of the source, which are not always exact repeats. Equal values may be shown once.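 Cultured in 96-well plates, cells were exposed to test compound for 48 hours across five concentrations. Here, GI50 denotes the concentration required for 50% inhibition of growth. TGI marks complete inhibition of growth.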

Tests used:
Assay in all cases: NCI tumour cell line growth inhibition, 48 h
786-0 renal = system: 786-0 renal
BT-549 breast = system: BT-549 breast
DMS 114 small cell lung = system: DMS 114 small cell lung
HOP-18 NSCLC = system: HOP-18 NSCLC
M14 melanoma = system: M14 melanoma
MDA-MB-231 breast = system: MDA-MB-231 breast
MDA-MB-435 = system: MDA-MB-435
MDA-N = system: MDA-N
P388/ADR leukemia = system: P388/ADR leukemia
SR leukemia = system: SR leukemia
T-47D breast = system: T-47D breast
TK-10 renal = system: TK-10 renal
A498 renal = system: A498 renal
A549 NSCLC = system: A549 NSCLC
ACHN renal = system: ACHN renal
CAKI-1 renal = system: CAKI-1 renal
CCRF-CEM leukemia = system: CCRF-CEM leukemia
COLO 205 colon = system: COLO 205 colon
DLD-1 colon = system: DLD-1 colon
DMS 273 small cell lung = system: DMS 273 small cell lung
DU-145 prostate = system: DU-145 prostate
EKVX NSCLC = system: EKVX NSCLC
HCC-2998 colon = system: HCC-2998 colon
HCT-116 colon = system: HCT-116 colon
HCT-15 colon = system: HCT-15 colon
HL-60(TB) leukemia = system: HL-60(TB) leukemia
HOP-62 NSCLC = system: HOP-62 NSCLC
HOP-92 NSCLC = system: HOP-92 NSCLC
HS 578T breast = system: HS 578T breast
HT29 colon = system: HT29 colon
IGROV1 ovarian = system: IGROV1 ovarian
K-562 leukemia = system: K-562 leukemia
KM12 colon = system: KM12 colon
KM20L2 colon = system: KM20L2 colon
LOX IMVI melanoma = system: LOX IMVI melanoma
LXFL 529 NSCLC = system: LXFL 529 NSCLC
M19-MEL melanoma = system: M19-MEL melanoma
MALME-3M melanoma = system: MALME-3M melanoma
MCF7 breast = system: MCF7 breast
MOLT-4 leukemia = system: MOLT-4 leukemia
NCI-H226 lung = system: NCI-H226 lung
NCI-H23 lung = system: NCI-H23 lung
NCI-H460 lung = system: NCI-H460 lung
NCI-H522 lung = system: NCI-H522 lung
NCI/ADR-RES ovarian = system: NCI/ADR-RES ovarian
OVCAR-3 ovarian = system: OVCAR-3 ovarian
OVCAR-4 ovarian = system: OVCAR-4 ovarian
OVCAR-5 ovarian = system: OVCAR-5 ovarian
OVCAR-8 ovarian = system: OVCAR-8 ovarian
PC-3 prostate = system: PC-3 prostate
RPMI-8226 leukemia = system: RPMI-8226 leukemia
RXF 393 renal = system: RXF 393 renal
RXF-631 renal = system: RXF-631 renal
SF-268 CNS = system: SF-268 CNS
SF-295 CNS = system: SF-295 CNS
SF-539 CNS = system: SF-539 CNS
SK-MEL-2 melanoma = system: SK-MEL-2 melanoma
SK-MEL-28 melanoma = system: SK-MEL-28 melanoma
SK-MEL-5 melanoma = system: SK-MEL-5 melanoma
SK-OV-3 ovarian = system: SK-OV-3 ovarian
SN12C renal = system: SN12C renal
SNB-19 CNS = system: SNB-19 CNS
SNB-75 CNS = system: SNB-75 CNS
SNB-78 CNS = system: SNB-78 CNS
SW-620 colon = system: SW-620 colon
U251 CNS = system: U251 CNS
UACC-257 melanoma = system: UACC-257 melanoma
UACC-62 melanoma = system: UACC-62 melanoma
UO-31 renal = system: UO-31 renal
XF 498 CNS = system: XF 498 CNS

Compound `COC1C(O)CC(OC2CC(Oc3cc4cc5c(c(O)c4c(O)c3C)C(=O)[C@@H](OC3CC(OC4CC(OC6CC(C)(O)C(OC(C)=O)C(C)O6)C(O)C(C)O4)C(O)C(C)O3)[C@H]([C@H](OC)C(=O)[C@@H](O)[C@@H](C)O)C5)OC(C)C2OC(C)=O)OC1C` (some centres not stated) has a GI50 (786-0 renal) of 0.000213 µM, a TGI (BT-549 breast) of 5.97e-05 µM and a GI50 (DMS 114 small cell lung) of 0.00328 µM. The GI50 (HOP-18 NSCLC) was 0.0164 nM, the GI50 (M14 melanoma) was 0.0189 nM and the TGI (M14 melanoma) was 0.000105 µM. The GI50 (MDA-MB-231 breast) was 0.0101 µM, the TGI (MDA-MB-231 breast) was 0.000467 µM and < 0.0234 µM and the TGI (MDA-MB-435) was 0.000167 µM. The TGI (MDA-N) was 0.000192 µM and < 0.0107 µM, the GI50 (P388/ADR leukemia) was 0.106 µM and the TGI (P388/ADR leukemia) was 9.49 µM and 8.82 µM. It also gave a GI50 (SR leukemia) of 0.0252 nM, a TGI (SR leukemia) of 0.000152 µM and a GI50 (T-47D breast) of 0.0356 nM. The TGI (T-47D breast) was 0.00182 µM and < 0.215 µM, the GI50 (TK-10 renal) was less than 0.0155 µM and the TGI (TK-10 renal) was 0.0033 µM.
`COC1/C=C/OC2(C)Oc3c(C)c(O)c4c(c3C2=O)C(=O)C=C(NC(=O)/C(C)=C\C=C\C(C)C(OC=O)C(C)C(O)C(C)C(OC(C)=O)C1C)C4=O` (configuration not stated) showed a TGI (786-0 renal) of 20.8 µM, a TGI (A498 renal) of 41.3 µM and a TGI (A549 NSCLC) of 39.7 µM. The TGI (ACHN renal) was 21.5 µM, the TGI (BT-549 breast) was 24 µM and the TGI (CAKI-1 renal) was 28.3 µM. The TGI (CCRF-CEM leukemia) was 6.4 µM, the TGI (COLO 205 colon) was 18 µM and the TGI (DLD-1 colon) was 23.3 µM. The TGI (DMS 114 small cell lung) was 34.6 µM, the TGI (DMS 273 small cell lung) was 30.9 µM and the TGI (DU-145 prostate) was 33 µM. The TGI (EKVX NSCLC) was 25.8 µM, the TGI (HCC-2998 colon) was 35.4 µM and the TGI (HCT-116 colon) was 14.1 µM. The TGI (HCT-15 colon) was 22.7 µM, the TGI (HL-60(TB) leukemia) was 5.88 µM and the TGI (HOP-18 NSCLC) was 15.8 µM. For the same compound, the TGI (HOP-62 NSCLC) was 34.8 µM, the TGI (HOP-92 NSCLC) was 28.8 µM and the TGI (HS 578T breast) was 44.9 µM. It also gave a TGI (HT29 colon) of 23.4 µM, a TGI (IGROV1 ovarian) of 34.7 µM and a TGI (K-562 leukemia) of 20.7 µM. For the same compound, the TGI (KM12 colon) was 45.9 µM, the TGI (KM20L2 colon) was 35.2 µM and the TGI (LOX IMVI melanoma) was 14.1 µM. It also gave a TGI (LXFL 529 NSCLC) of 19 µM, a TGI (M14 melanoma) of 19.5 µM and a TGI (M19-MEL melanoma) of 27.6 µM. It also gave a TGI (MALME-3M melanoma) of 28.7 µM, a TGI (MCF7 breast) of 7.29 µM and a TGI (MDA-MB-231 breast) greater than 48.5 µM. For the same compound, the TGI (MDA-MB-435) was 33.3 µM, the TGI (MDA-N) was greater than 50.7 µM and the TGI (MOLT-4 leukemia) was 10.8 µM. For the same compound, the TGI (NCI-H226 lung) was 21.5 µM, the TGI (NCI-H23 lung) was 30.6 µM and the TGI (NCI-H460 lung) was 42 µM. The TGI (NCI-H522 lung) was 6.33 µM, the TGI (NCI/ADR-RES ovarian) was 49.2 µM and the TGI (OVCAR-3 ovarian) was 11.9 µM. For the same compound, the TGI (OVCAR-4 ovarian) was 19.1 µM, the TGI (OVCAR-5 ovarian) was 36.4 µM and the TGI (OVCAR-8 ovarian) was 33.5 µM. The TGI (PC-3 prostate) was 25.1 µM, the TGI (RPMI-8226 leukemia) was 24.2 µM and the TGI (RXF 393 renal) was 19 µM. For the same compound, the TGI (RXF-631 renal) was 35.7 µM, the TGI (SF-268 CNS) was 37.1 µM and the TGI (SF-295 CNS) was 51 µM. It also gave a TGI (SF-539 CNS) of 32.9 µM, a TGI (SK-MEL-2 melanoma) of 36.6 µM and a TGI (SK-MEL-28 melanoma) of 15 µM. The TGI (SK-MEL-5 melanoma) was 31.6 µM, the TGI (SK-OV-3 ovarian) was 56.7 µM and the TGI (SN12C renal) was 29.5 µM. The TGI (SNB-19 CNS) was 27.4 µM, the TGI (SNB-75 CNS) was 41.1 µM and the TGI (SNB-78 CNS) was 44.2 µM. The TGI (SR leukemia) was 8.08 µM, the TGI (SW-620 colon) was 14 µM and the TGI (T-47D breast) was 11.6 µM. The TGI (TK-10 renal) was 30.4 µM, the TGI (U251 CNS) was 38.2 µM and the TGI (UACC-257 melanoma) was 26.5 µM. For the same compound, the TGI (UACC-62 melanoma) was 27.9 µM, the TGI (UO-31 renal) was 29.6 µM and the TGI (XF 498 CNS) was 12.8 µM.
